According to publication PMC11995724, “Antibiotic target discovery by integrated phenotypic and activity-based profiling of electrophilic fragments” (Cell chemical biology, 2025):
Counter-ions that a name gives are not always drawn.

Assay: in vitro
Conditions: human, hek293t cells

N#CC(=Cc1c(F)cccc1F)C(=O)Nc1ccccc1F [9-J12, 2-cyano-3-(2,6-difluorophenyl)-N-(2-fluorophenyl)prop-2-enamide]
viability at 48 h, 25 µM: 103%

C=CC(=O)N1CCC(C(=O)N[C@H](C)c2ccc3c(c2)CCCC3)CC1 [3-P12, 1-(prop-2-enoyl)-N-[(1R)-1-(5,6,7,8-tetrahydronaphthalen-2-yl)ethyl]piperidine-4-carboxamide]
viability at 48 h, 25 µM: 58%

N#CC(=Cc1cccc(F)c1F)C(=O)NCc1ccccc1 [8-B06, N-benzyl-2-cyano-3-(2,3-difluorophenyl)prop-2-enamide]
viability at 48 h, 25 µM: 27.1%

O=C(CCl)N1CCC1c1cccc(F)c1 (centres unmarked) [5-K10, 2-chloro-1-[2-(3-fluorophenyl)azetidin-1-yl]ethan-1-one]
viability at 48 h, 25 µM: 28.5%

CC(C)NC(=O)C(C#N)=Cc1cccc(Cl)c1Cl [9-C07, 2-cyano-3-(2,3-dichlorophenyl)-N-(propan-2-yl)prop-2-enamide]
viability at 48 h, 25 µM: 39.7%

C=CC(=O)N1CCC(c2nnnn2C)CC1 [2-I06, 1-[4-(1-methyl-1H-1,2,3,4-tetrazol-5-yl)piperidin-1-yl]prop-2-en-1-one]
viability at 48 h, 25 µM: 95.6%

Cc1cc(NC(=O)CN(C)C(=O)C(C)Cl)no1 (centres unmarked) [7-M19, 2-chloro-N-methyl-N-{[(5-methyl-1,2-oxazol-3-yl)carbamoyl]methyl}propanamide]
viability at 48 h, 25 µM: 79.5%

O=C(CCl)Nc1cc(Cl)ccc1Oc1ccccc1 [5-G19, 2-chloro-N-(5-chloro-2-phenoxyphenyl)acetamide]
viability at 48 h, 25 µM: 0.676%

C=CC(=O)NCC1CCN(S(=O)(=O)C(F)(F)F)CC1 [1-A03, N-[(1-trifluoromethanesulfonylpiperidin-4-yl)methyl]prop-2-enamide]
viability at 48 h, 25 µM: 83.3%

Cc1cc(C)c(C(=O)CCl)c(C)c1 [10-C08, 2-chloro-1-(2,4,6-trimethylphenyl)ethan-1-one]
viability at 48 h, 25 µM: 97.8%

CCn1nc(C)c(C=C(C#N)C(=O)Nc2ccccc2Cl)c1C [9-F07, N-(2-chlorophenyl)-2-cyano-3-(1-ethyl-3,5-dimethyl-1H-pyrazol-4-yl)prop-2-enamide]
viability at 48 h, 25 µM: 110%

N#CC(=Cc1cccc(O)c1)C(=O)NCCc1ccccc1 [8-N03, 2-cyano-3-(3-hydroxyphenyl)-N-(2-phenylethyl)prop-2-enamide]
viability at 48 h, 25 µM: 101%

CC(Cl)C(=O)N1C2CCC1CC(O)(Cc1ccc(F)cc1F)C2 (centres unmarked) [7-G18, 2-chloro-1-{3-[(2,4-difluorophenyl)methyl]-3-hydroxy-8-azabicyclo[3.2.1]octan-8-yl}propan-1-one]
viability at 48 h, 25 µM: 60%

CSc1ccc(C=C(C#N)C(=O)Nc2c(C)cc(C)cc2C)cc1 [8-G15, 2-cyano-3-[4-(methylsulfanyl)phenyl]-N-(2,4,6-trimethylphenyl)prop-2-enamide]
viability at 48 h, 25 µM: 111%

C=CC(=O)Nc1cnn2cc(C)cnc12 [1-G19, N-{6-methylpyrazolo[1,5-a]pyrimidin-3-yl}prop-2-enamide]
viability at 48 h, 25 µM: 96.4%

O=C(CCl)Nc1ccc(S(=O)(=O)N2CCCC2)cc1 [4-F08, 2-chloro-N-[4-(pyrrolidine-1-sulfonyl)phenyl]acetamide]
viability at 48 h, 25 µM: 1.07%

CC(CO)(Cc1ccc(F)cc1)NC(=O)CCl (centres unmarked) [7-F06, 2-chloro-N-{2-[(4-fluorophenyl)methyl]-1-hydroxypropan-2-yl}acetamide]
viability at 48 h, 25 µM: 3.71%

Cc1ccccc1N(CC(=O)N1CCCCC1)C(=O)C(C)Cl (centres unmarked) [7-G20, 2-chloro-N-(2-methylphenyl)-N-[2-oxo-2-(piperidin-1-yl)ethyl]propanamide]
viability at 48 h, 25 µM: 70.7%

COc1ccc(OC)c(-c2csc(NC(=O)CCl)n2)c1 [4-H12, 2-chloro-N-[4-(2,5-dimethoxyphenyl)-1,3-thiazol-2-yl]acetamide]
viability at 48 h, 25 µM: 1.27%

CCCCNC(=O)C(C#N)=Cc1cc(C)c(O)c(C)c1 [9-E09, N-butyl-2-cyano-3-(4-hydroxy-3,5-dimethylphenyl)prop-2-enamide]
viability at 48 h, 25 µM: 111%

COc1ccc(OC)c(NC(=O)CCl)c1 [6-O04, 2-chloro-N-(2,5-dimethoxyphenyl)acetamide]
viability at 48 h, 25 µM: 0.314%

CC(C)C(NC(=O)CCl)c1ccc(Cl)cc1F (centres unmarked) [7-J22, 2-chloro-N-[1-(4-chloro-2-fluorophenyl)-2-methylpropyl]acetamide]
viability at 48 h, 25 µM: 0.584%

Cn1ccc(C(=O)CCl)c1 [10-D08, 2-chloro-1-(1-methyl-1H-pyrrol-3-yl)ethan-1-one]
viability at 48 h, 25 µM: 1.8%

O=C(CCl)Nc1cccc(CN2CCSCC2)c1 [5-J14, 2-chloro-N-{3-[(thiomorpholin-4-yl)methyl]phenyl}acetamide hydrochloride]
viability at 48 h, 25 µM: 1.12%

C=CC(=O)N(C)CC(=O)N1CCCC(CC(N)=O)CC1 (centres unmarked) [3-C20, N-{2-[4-(carbamoylmethyl)azepan-1-yl]-2-oxoethyl}-N-methylprop-2-enamide]
viability at 48 h, 25 µM: 68.6%

CC(Cl)C(=O)Nc1cc(Cl)c(Cl)cc1Cl (centres unmarked) [4-N13, 2-chloro-N-(2,4,5-trichlorophenyl)propanamide]
viability at 48 h, 25 µM: 71.7%

N#CC(=Cc1cnc(-c2ccccc2)nc1)C(=O)NCc1ccco1 [9-M14, 2-cyano-N-[(furan-2-yl)methyl]-3-(2-phenylpyrimidin-5-yl)prop-2-enamide]
viability at 48 h, 25 µM: 143%

CC(CNC(=O)C(C)Cl)Oc1cccc(Cl)c1 (centres unmarked) [6-F13, 2-chloro-N-[2-(3-chlorophenoxy)propyl]propanamide]
viability at 48 h, 25 µM: 103%

CC(C)(C)C(=O)NCc1ccc(C(=O)CCl)s1 [10-P10, N-{[5-(2-chloroacetyl)thiophen-2-yl]methyl}-2,2-dimethylpropanamide]
viability at 48 h, 25 µM: 12.3%

CC(Cl)C(=O)Nc1cc(Cl)cc(Cl)c1 (centres unmarked) [4-D17, 2-chloro-N-(3,5-dichlorophenyl)propanamide]
viability at 48 h, 25 µM: 67.8%

C=CC(=O)Nc1nc(C)c(CC(C)C)s1 [1-J12, N-[4-methyl-5-(2-methylpropyl)-1,3-thiazol-2-yl]prop-2-enamide]
viability at 48 h, 25 µM: 0.934%

O=C1C=CC(=O)N1c1cc(C(F)(F)F)ccc1Cl [10-G09, 1-[2-chloro-5-(trifluoromethyl)phenyl]-2,5-dihydro-1H-pyrrole-2,5-dione]
viability at 48 h, 25 µM: 58.9%

CN(C)S(=O)(=O)c1ccc(Cl)c(NC(=O)CCl)c1 [6-H12, 2-chloro-N-[2-chloro-5-(dimethylsulfamoyl)phenyl]acetamide]
viability at 48 h, 25 µM: 0.99%

C=CC(=O)N1CCCc2cccc(F)c21 [1-L19, 1-(8-fluoro-1,2,3,4-tetrahydroquinolin-1-yl)prop-2-en-1-one]
viability at 48 h, 25 µM: 112%

Cc1ccc(C=C(C#N)C(=O)NCCc2ccccc2)o1 [8-H12, 2-cyano-3-(5-methylfuran-2-yl)-N-(2-phenylethyl)prop-2-enamide]
viability at 48 h, 25 µM: 118%

CC(Cl)C(=O)NC(=O)Nc1ccc2c(c1)OCCO2 (centres unmarked) [5-D08, 3-(2-chloropropanoyl)-1-(2,3-dihydro-1,4-benzodioxin-6-yl)urea]
viability at 48 h, 25 µM: 84.1%

Cc1cc(C(=O)CCl)c(C)n1-c1ccc(OC(F)(F)F)cc1 [10-G04, 2-chloro-1-{2,5-dimethyl-1-[4-(trifluoromethoxy)phenyl]-1H-pyrrol-3-yl}ethan-1-one]
viability at 48 h, 25 µM: 0.243%

Cc1c(C=C(C#N)C(=O)Nc2ccccc2F)cc(C#N)n1C [8-A13, 2-cyano-3-(5-cyano-1,2-dimethyl-1H-pyrrol-3-yl)-N-(2-fluorophenyl)prop-2-enamide]
viability at 48 h, 25 µM: 83.9%

Cn1cc(CN(C(=O)CCl)c2ccc(F)cc2)cn1 [6-D08, 2-chloro-N-(4-fluorophenyl)-N-[(1-methyl-1H-pyrazol-4-yl)methyl]acetamide]
viability at 48 h, 25 µM: 2.1%

NS(=O)(=O)c1ccc(CNC(=O)CCl)cc1 [4-P12, 2-chloro-N-[(4-sulfamoylphenyl)methyl]acetamide]
viability at 48 h, 25 µM: 0.879%

O=C(CCl)NC(c1ccccc1)C1CC1c1ccncc1 (centres unmarked) [7-F03, 2-chloro-N-{phenyl[2-(pyridin-4-yl)cyclopropyl]methyl}acetamide hydrochloride]
viability at 48 h, 25 µM: 0.921%

O=C(CN(CC1CCCO1)C(=O)CCl)N1CCCC1 (centres unmarked) [7-D18, 2-chloro-N-[2-oxo-2-(pyrrolidin-1-yl)ethyl]-N-[(oxolan-2-yl)methyl]acetamide]
viability at 48 h, 25 µM: 99.8%

N#CC(=Cc1cc(F)ccc1F)C(=O)NC1CCCCC1 [8-G08, 2-cyano-N-cyclohexyl-3-(2,5-difluorophenyl)prop-2-enamide]
viability at 48 h, 25 µM: 9.88%

C=CC(=O)NC1CCOC(c2cnn(C)c2)C1 (centres unmarked) [2-F07, N-[2-(1-methyl-1H-pyrazol-4-yl)oxan-4-yl]prop-2-enamide]
viability at 48 h, 25 µM: 73%

N#Cc1c(NC(=O)CCl)oc(-c2cccs2)c1-c1cccs1 [6-I09, 2-chloro-N-[3-cyano-4,5-bis(thiophen-2-yl)furan-2-yl]acetamide]
viability at 48 h, 25 µM: 28.5%

CN(C)S(=O)(=O)c1cc(NC(=O)CCl)ccc1Cl [5-E13, 2-chloro-N-[4-chloro-3-(dimethylsulfamoyl)phenyl]acetamide]
viability at 48 h, 25 µM: 0.0364%

C=CCN(Cc1cccs1)C(=O)CCl [5-B06, 2-chloro-N-(prop-2-en-1-yl)-N-[(thiophen-2-yl)methyl]acetamide]
viability at 48 h, 25 µM: 0.0461%

COc1cc(NC(=O)CCl)c(Cl)cc1C(=O)O [4-M17, 5-chloro-4-(2-chloroacetamido)-2-methoxybenzoic acid]
viability at 48 h, 25 µM: 1.05%

C=CC(=O)NCc1ccc(C(=O)N2CCCC23CCOC3=O)cc1 (centres unmarked) [3-I06, N-[(4-{6-oxo-7-oxa-1-azaspiro[4.4]nonane-1-carbonyl}phenyl)methyl]prop-2-enamide]
viability at 48 h, 25 µM: 88.5%

CCCn1c(N)c(C(=O)CCl)c(=O)[nH]c1=O [10-L10, 6-amino-5-(2-chloroacetyl)-1-propyl-1,2,3,4-tetrahydropyrimidine-2,4-dione]
viability at 48 h, 25 µM: 97.8%

CC(Cl)C(=O)N1C2CCC1CC(N(C)C(=O)c1ccccc1)C2 (centres unmarked) [6-L14, N-[8-(2-chloropropanoyl)-8-azabicyclo[3.2.1]octan-3-yl]-N-methylbenzamide]
viability at 48 h, 25 µM: 101%

CC(=O)c1cccc(NC(=O)C(C)Cl)c1 (centres unmarked) [6-K22, N-(3-acetylphenyl)-2-chloropropanamide]
viability at 48 h, 25 µM: 105%

C=CC(=O)NCc1cc(-c2ccccc2OC)no1 [2-C18, N-{[3-(2-methoxyphenyl)-1,2-oxazol-5-yl]methyl}prop-2-enamide]
viability at 48 h, 25 µM: 72.8%
